From ChEMBL document CHEMBL1201862, “PubChem BioAssay data set” (2004)
The source made the active and inactive calls.

Legend:
[1] = target: T1, RNA-binding protein pos-1 (Caenorhabditis elegans, UniProt G5EF15); experiment: disruptors of C. elegans POS-1 RNA interaction – biochemical, fluorescence polarization, dose response (AID 1964);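 note: purified POS-1 fused to maltose binding protein made in E. coli; potency of compounds blocking POS-1 binding to fluorescent RNA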
T1 sequence (G5EF15 whole entry): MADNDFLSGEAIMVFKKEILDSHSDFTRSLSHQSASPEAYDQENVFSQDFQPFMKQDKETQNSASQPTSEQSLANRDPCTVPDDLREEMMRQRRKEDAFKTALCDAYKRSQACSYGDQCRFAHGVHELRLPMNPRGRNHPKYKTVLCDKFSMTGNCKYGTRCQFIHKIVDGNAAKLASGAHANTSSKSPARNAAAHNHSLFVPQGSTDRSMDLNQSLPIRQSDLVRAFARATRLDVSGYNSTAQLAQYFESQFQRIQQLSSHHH

[2] = target: T2, Zinc finger protein mex-5 (Caenorhabditis elegans, UniProt Q9XUB2); experiment: potency of MEX-5 RNA-binding blockers – biochemical, C. elegans, fluorescence polarization, dose response (AID 1960)
T2 sequence (Q9XUB2 whole entry): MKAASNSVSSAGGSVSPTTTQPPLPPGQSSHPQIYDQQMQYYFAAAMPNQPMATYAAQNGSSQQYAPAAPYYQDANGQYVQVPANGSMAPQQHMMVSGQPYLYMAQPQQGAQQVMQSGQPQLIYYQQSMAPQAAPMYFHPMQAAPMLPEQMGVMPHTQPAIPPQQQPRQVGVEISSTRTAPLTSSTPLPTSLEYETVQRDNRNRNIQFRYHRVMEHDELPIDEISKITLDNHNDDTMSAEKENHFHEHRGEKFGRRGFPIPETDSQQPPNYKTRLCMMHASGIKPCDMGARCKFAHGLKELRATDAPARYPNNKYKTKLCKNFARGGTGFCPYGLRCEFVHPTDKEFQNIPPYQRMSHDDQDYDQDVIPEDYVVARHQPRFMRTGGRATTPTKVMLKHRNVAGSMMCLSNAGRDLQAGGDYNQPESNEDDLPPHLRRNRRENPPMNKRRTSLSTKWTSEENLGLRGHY

[3] = Trypanosoma cruzi growth suppression in host cells – NIH3T3 host cells, beta-gal luminescence, confirmation (AID 2044); format: functional, cell-based;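 note: intracellular parasites grown in NIH/3T3 mouse fibroblasts as host cells; luminescent beta-galactosidase reporter signal from transgenic T. cruzi replicating inside host cells; inhibitors lower the luminescence signal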
[4] = NIH3T3 cell viability loss – ATP luminescence, mouse fibroblasts, counter-screen, dose response (AID 2010); format: functional, cell-based;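 note: cells exposed to compound for about 90 hours before reading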
Albumin = Albumin (Bos taurus, UniProt P02769); experiment: Counterscreen for inhibitors of T-cell receptor (TCR)-CD3 interaction: Fluorescence-based biochemical high throughput dose response assay to identify inhibitors of T-cell receptor (TCR)-CD3 interaction using a TAMRA-labeled BSA probe.; format: functional
Albumin, sequence (P02769 whole entry): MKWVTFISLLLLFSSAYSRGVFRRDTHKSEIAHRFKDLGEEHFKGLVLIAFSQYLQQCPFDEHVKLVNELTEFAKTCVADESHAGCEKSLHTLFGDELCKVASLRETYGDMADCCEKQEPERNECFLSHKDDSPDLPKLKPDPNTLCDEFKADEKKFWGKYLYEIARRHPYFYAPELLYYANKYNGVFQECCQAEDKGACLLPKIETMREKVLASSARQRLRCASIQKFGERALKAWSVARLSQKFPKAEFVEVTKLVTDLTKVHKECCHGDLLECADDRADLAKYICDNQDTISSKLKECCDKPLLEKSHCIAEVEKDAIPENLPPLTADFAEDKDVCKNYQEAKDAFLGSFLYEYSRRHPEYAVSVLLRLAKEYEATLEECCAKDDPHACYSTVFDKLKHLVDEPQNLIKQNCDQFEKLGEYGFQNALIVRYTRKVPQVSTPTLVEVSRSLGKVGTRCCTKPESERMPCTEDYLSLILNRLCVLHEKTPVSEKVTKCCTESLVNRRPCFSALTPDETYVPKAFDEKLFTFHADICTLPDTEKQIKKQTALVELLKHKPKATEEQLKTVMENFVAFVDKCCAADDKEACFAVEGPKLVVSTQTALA

Paired box protein Pax-8 = Paired box protein Pax-8 (Homo sapiens, UniProt Q06710); experiment: PAX8 transcriptional activity inhibition in RMG-I – RMG-I cells, luciferase, cherry-pick, dose response (AID 687027); format: functional, cell-based;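 note: luciferase reporter driven by Pax8 target thyroperoxidase promoter measured by SteadyGlo luminescence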
Paired box protein Pax-8, sequence (Q06710 whole entry): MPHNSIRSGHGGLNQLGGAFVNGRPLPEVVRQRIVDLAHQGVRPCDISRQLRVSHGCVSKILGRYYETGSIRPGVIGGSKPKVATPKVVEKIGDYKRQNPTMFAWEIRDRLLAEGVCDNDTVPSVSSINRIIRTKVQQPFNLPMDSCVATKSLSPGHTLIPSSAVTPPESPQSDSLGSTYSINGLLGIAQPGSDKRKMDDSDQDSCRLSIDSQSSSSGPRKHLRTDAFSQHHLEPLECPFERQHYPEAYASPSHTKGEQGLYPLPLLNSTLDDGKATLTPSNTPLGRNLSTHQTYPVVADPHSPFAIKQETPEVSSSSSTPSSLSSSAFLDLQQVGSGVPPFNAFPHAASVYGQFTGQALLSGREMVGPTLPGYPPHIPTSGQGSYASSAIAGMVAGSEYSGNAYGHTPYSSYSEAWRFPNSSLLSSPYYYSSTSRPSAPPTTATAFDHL

[5] = OVCAR-3 cell viability loss – plate reader, dry powder samples, PAX8 inhibitor project, dose response (AID 743044); format: functional, cell-based
[6] = IGROV1 cell killing – plate reader, dry powder samples, PAX8 inhibitor project, dose response (AID 743043); format: functional, cell-based; conditions: IGROV-1
[7] = OVCAR8 cell viability loss – plate reader, dry powder samples, PAX8 project, dose response (AID 743197); format: functional, cell-based; conditions: OVCAR-8
[8] = HGIII-sPLA2 enzyme inhibition potency – biochemical, QFRET, IC50, dose response (AID 743457);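 note: green fluorescence rise as the enzyme cleaves BODIPY PC-A2 in liposomes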
[9] = cytotoxicity in MITF-independent A375 cells – cell-based, CellTiter-Glo luminescence, dry powder, set 4, counter-screen for MITF inhibitor project, dose response (AID 624364); format: functional; conditions: A-375;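 note: A375 melanoma cells are MITF independent so this is a counter screen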
[10] = viability loss in MITF-independent A375 cells – cell-based, CellTiter-Glo luminescence, dry powder, set 2, counter-screen for MITF inhibitor project, dose response (AID 624489); format: functional; conditions: A-375;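 note: actives are compounds lowering A375 viability meaning general cytotoxicity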
[11] = target: Endoplasmic reticulum aminopeptidase 1 (Homo sapiens, UniProt Q9NZ08); experiment: inhibition of human ERAP1 enzyme activity – biochemical, cherry-pick, set 2, plate reader, dose response (AID 743314)
Endoplasmic reticulum aminopeptidase 1, sequence (Q9NZ08 whole entry): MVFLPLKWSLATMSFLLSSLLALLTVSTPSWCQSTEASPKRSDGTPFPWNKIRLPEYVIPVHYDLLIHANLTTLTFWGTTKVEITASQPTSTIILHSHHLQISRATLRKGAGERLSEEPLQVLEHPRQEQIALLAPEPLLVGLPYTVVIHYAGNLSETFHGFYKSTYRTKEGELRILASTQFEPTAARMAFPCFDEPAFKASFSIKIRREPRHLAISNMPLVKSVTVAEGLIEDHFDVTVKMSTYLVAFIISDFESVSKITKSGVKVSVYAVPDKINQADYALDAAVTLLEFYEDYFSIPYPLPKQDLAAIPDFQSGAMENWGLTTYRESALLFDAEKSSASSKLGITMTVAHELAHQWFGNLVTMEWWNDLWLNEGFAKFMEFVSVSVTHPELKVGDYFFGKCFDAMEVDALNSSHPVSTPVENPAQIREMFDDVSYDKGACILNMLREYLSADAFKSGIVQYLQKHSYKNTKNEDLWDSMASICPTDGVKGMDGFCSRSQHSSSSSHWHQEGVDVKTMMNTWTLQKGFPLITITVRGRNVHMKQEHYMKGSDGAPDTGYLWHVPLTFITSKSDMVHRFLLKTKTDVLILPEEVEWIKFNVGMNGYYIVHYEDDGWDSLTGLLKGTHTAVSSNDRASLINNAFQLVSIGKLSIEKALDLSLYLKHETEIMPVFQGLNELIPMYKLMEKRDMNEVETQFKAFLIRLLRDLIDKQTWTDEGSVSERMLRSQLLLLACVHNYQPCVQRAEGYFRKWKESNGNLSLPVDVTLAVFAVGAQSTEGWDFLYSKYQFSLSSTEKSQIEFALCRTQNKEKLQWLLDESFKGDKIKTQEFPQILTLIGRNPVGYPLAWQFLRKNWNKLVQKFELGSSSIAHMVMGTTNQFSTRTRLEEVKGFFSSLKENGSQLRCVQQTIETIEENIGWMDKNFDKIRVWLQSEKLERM

[12] = P. falciparum Dd2 growth inhibitors, dose response, SYBR Green, cherry-picked samples (AID 1159567); format: functional, cell-based
[13] = toxicity to human hepatoma HepG2 cells – cell-based, cherry-picked samples, cytotoxicity control, dose response (AID 1159577); format: functional
[14] = A549 cell cytotoxicity, dose response, cytotoxicity control, plate reader, cherry-pick, antagonist series (AID 743412); format: functional, cell-based
[15] = toxicity toward HepG2 liver cells – cell-based, plate reader, cherry-pick, antagonist series, cytotoxicity control, dose response (AID 743416); format: functional
[16] = blockers of bursicon-stimulated LGR2 cAMP reporter – cell-based, HEK293, CRE-luciferase reporter, cherry pick, set 2, dose response (AID 743343); format: functional;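 note: transfected cells were stimulated with diluted bursicon conditioned medium after compound addition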
[17] = blockade of melanocortin 4 receptor signaling – cell-based, plate reader, cherry pick, counter-screen for LGR2 antagonist project, dose response (AID 743444); format: functional;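 note: transfected HEK 293 cells stimulated with alpha-MSH peptide; potency of inhibitors of the alpha-MSH evoked signal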

Q: Which EC50 [1] does the source give for `O=C(N/N=C/c1cc(Cl)cc([N+](=O)[O-])c1O)c1ccc2c(c1)OCO2` here?
A: Its EC50 is 127 µM (active).

Q: What about the EC50 [2] of the same molecule?
A: Its EC50 is 241 µM (active).

Q: What about the EC50 [3] of the same molecule?
A: The EC50 was 1.1 µM (active).

Q: What about the EC50 [4] of the same molecule?
A: The EC50 was 5.65 µM (active).

Q: And the IC50 (Albumin)?
A: The IC50 was > 94.1 µM (inactive).

Q: With `COc1cccc(-c2ccc3c(c2)[C@H]2[C@H](CCN2S(=O)(=O)c2ccccc2F)[C@@H](CO)N3)c1` as the molecule, how does the AC50 (Paired box protein Pax-8) read?
A: Its AC50 is 3.92 µM (active).

Q: What about the AC50 [5] of the same molecule?
A: Its AC50 is 19.1 µM (active).

Q: What about the AC50 [6] of the same molecule?
A: The AC50 was 31.4 µM (active).

Q: What about the AC50 [7] of the same molecule?
A: The AC50 was 21.9 µM (active).

Q: For `Cc1cc(C(=O)NN=C(S)NC2CCCCC2)cs1`, which IC50 [8] is on record?
A: Its IC50 is > 122 µM (inactive).

Q: With `O=C(NC1=C(c2ccc(Oc3ccccc3)cc2)C(=O)c2ccccc2C1=O)c1ccccc1` as the molecule, how does the AC50 [9] read?
A: Its AC50 is > 70 µM (inactive).

Q: What about the AC50 [10] of the same molecule?
A: The AC50 was > 70 µM (inactive).

Q: Which results are given for `O=C1C(NS(=O)(=O)c2ccccc2)=C(N2CCCCC2)C(=O)c2ccccc21`?
A: AC50 [9]: > 70 µM (inactive); AC50 [10]: > 70 µM (inactive)

Q: For `O=c1ccc2cc(O[C@@H]3O[C@H](CO)[C@@H](O)[C@H](O)[C@H]3O)c(O)cc2o1`, which AC50 [11] is on record?
A: The AC50 was 1.72 µM (active).

Q: With `CCCC#Cc1ccc([C@H]2[C@H](CO)N3CCCCN(CC4CCOCC4)C[C@@H]23)cc1` as the molecule, how does the AC50 [12] read?
A: The AC50 was 3.68 µM (active).

Q: And the AC50 [13]?
A: Its AC50 is 26.9 µM (active).

Q: For `N#C[C@@H]1[C@H](c2ccc(C#Cc3ccccc3F)cc2)[C@@H](CO)N1C(=O)C1CCC1`, which AC50 [14] is on record?
A: Its AC50 is 31.2 µM (active).

Q: And the AC50 [15]?
A: Its AC50 is 31.5 µM (active).

Q: What about the AC50 [16] of the same molecule?
A: The AC50 was 29.9 µM (active).

Q: What about the AC50 [17] of the same molecule?
A: Its AC50 is 22.5 µM (active).

Q: Which IC50 [8] does the source give for `CCn1c(S)nnc1-c1cccn(Cc2ccc(Cl)cc2Cl)c1=O` here?
A: Its IC50 is > 122 µM (inactive).
